Source: patent US8124793B2, “Derivatives of ethylene methanedisulfonate as cancer chemotherapeutic agents” (priority 2007, dated 2012)

Experiments:
Type in all cases: cell-based
LOXIMVI = assay: NCI screen, growth of human tumor cells: Melanoma LOXIMVI; settings: LOXIMVI (Melanoma), 10^−4 molar
Description: (§1) In the NCI screening process, each compound was tested and described by a minimum of 60 data points. The test data include, but are not limited to the type of cancer, the molar concentration used in the screen, and the percent growth of the cancer. In some cases, NMR and elemental analysis were used for structural assignment.

human cancer cells = assay: NCI screen summary over the cancers tested (negative growth of human cancer cells); settings: 10^−4 M conc.; cancers with negative growth / cancers tested
Description: as §1
The derivatives in the tables are grouped using the same category as in the tables 1-6.

HCT-116 = assay: NCI screen, growth of human tumor cells: Colon Cancer HCT-116; settings: HCT-116 (Colon Cancer), 10^−4 molar
Description: as §1

K562 = assay: NCI screen, growth of human tumor cells: Leukemia K562; settings: K562 (Leukemia), 10^−4 molar
Description: as §1

PC-3 = assay: NCI screen, growth of human tumor cells: Prostate Cancer PC-3; settings: PC-3 (Prostate Cancer), 10^−4 molar
Description: as §1

NCI-H460 = assay: NCI screen, growth of human tumor cells: Non-Small Cell Lung NCI-H460; settings: NCI-H460 (Non-Small Cell Lung), 10^−4 molar
Description: as §1

HCC-2998 = assay: NCI screen, growth of human tumor cells: HCC-2998 (listed under Non-Small Cell Lung); settings: for percent of growth of human tumor cells: HCC-2998 (under Non-Small Cell Lung), 10^−4 molar
Description: as §1

MCF 7 = assay: NCI screen, growth of human tumor cells: Breast Cancer MCF 7; settings: MCF 7 (Breast Cancer), 10^−4 molar
Description: as §1

BT-549 = assay: NCI screen, growth of human tumor cells: Breast Cancer BT-549; settings: BT-549 (Breast Cancer), 10^−4 molar
Description: as §1

SK-MEL-5 = assay: NCI screen, growth of human tumor cells: Melanoma SK-MEL-5; settings: SK-MEL-5 (Melanoma), 10^−4 molar
Description: as §1

UACC-257 = assay: NCI screen, growth of human tumor cells: Melanoma UACC-257; settings: UACC-257 (Melanoma), 10^−4 molar
Description: as §1

HS 578T = assay: NCI screen, growth of human tumor cells: Breast Cancer HS 578T; settings: HS 578T (Breast Cancer), 10^−4 molar
Description: as §1

SF-268 = assay: NCI screen, growth of human tumor cells: CNS Cancer SF-268; settings: SF-268 (CNS Cancer), 10^−4 molar
Description: as §1

SNB-75 = assay: NCI screen, growth of human tumor cells: CNS Cancer SNB-75; settings: SNB-75 (CNS Cancer), 10^−4 molar
Description: as §1

U-251 = assay: NCI screen, growth of human tumor cells: CNS Cancer U-251; settings: U-251 (CNS Cancer), 10^−4 molar
Description: as §1

SN12C = assay: NCI screen, growth of human tumor cells: Renal Cancer SN12C; settings: SN12C (Renal Cancer), 10^−4 molar
Description: as §1

MALME-3M = assay: NCI screen, growth of human tumor cells: Melanoma MALME-3M; settings: 10^−4 molar
Description: as §1

DU-145 = assay: NCI screen, growth of human tumor cells: Prostate Cancer DU-145; settings: DU-145 (Prostate Cancer), 10^−4 molar
Description: as §1

IGROVI = assay: NCI screen, growth of human tumor cells: Ovarian Cancer IGROVI; settings: IGROVI (Ovarian Cancer), 10^−4 molar
Description: as §1

MDA-MB-435 = assay: NCI screen, growth of human tumor cells: Breast Cancer MDA-MB-435; settings: for percent of growth of human tumor cells: MDA-MB-435 (Breast Cancer), 10^−4 molar
Description: as §1

MCF7/ADR-RES = assay: NCI screen, growth of human tumor cells: Breast Cancer MCF7/ADR-RES; settings: MCF7/ADR-RES (Breast Cancer), 10^−4 molar
Description: as §1

UACC-62 = assay: NCI screen, growth of human tumor cells: Melanoma UACC-62; settings: UACC-62 (Melanoma), 10^−4 molar
Description: as §1

NCI-H522 = assay: NCI screen, growth of human tumor cells: Non-Small Cell Lung NCI-H522; settings: NCI-H522 (Non-Small Cell Lung), 10^−4 molar
Description: as §1

OVCAR-4 = assay: NCI screen, growth of human tumor cells: Ovarian Cancer OVCAR-4; settings: OVCAR-4 (Ovarian Cancer), 10^−4 molar
Description: as §1

NCI-H23 = assay: NCI screen, growth of human tumor cells: Non-Small Cell Lung NCI-H23; settings: NCI-H23 (Non-Small Cell Lung), 10^−4 molar
Description: as §1

HOP-92 = assay: NCI screen, growth of human tumor cells: Non-Small Cell Lung HOP-92; settings: HOP-92 (Non-Small Cell Lung), 10^−4 molar
Description: as §1

OVCAR-3 = assay: NCI screen, growth of human tumor cells: Ovarian Cancer OVCAR-3; settings: OVCAR-3 (Ovarian Cancer), 10^−4 molar
Description: as §1

HCT-15 = assay: NCI screen, growth of human tumor cells: Colon Cancer HCT-15; settings: HCT-15 (Colon Cancer), 10^−4 molar
Description: as §1

COLO205 = assay: NCI screen, growth of human tumor cells: Colon Cancer COLO205; settings: COLO205 (Colon Cancer), 10^−4 molar
Description: as §1

UO-31 = assay: NCI screen, growth of human tumor cells: Renal Cancer UO-31; settings: UO-31 (Renal Cancer), 10^−4 molar
Description: as §1

CCRF-CEM = assay: NCI screen, growth of human tumor cells: Leukemia CCRF-CEM; settings: CCRF-CEM (Leukemia), 10^−4 molar
Description: as §1

SR = assay: NCI screen, growth of human tumor cells: Leukemia SR; settings: for % Growth: SR
Description: as §1

MOLT-4 = assay: NCI screen, growth of human tumor cells: Leukemia MOLT-4; settings: for percent of growth of human tumor cells: MOLT-4 (Leukemia), 10^−4 molar
Description: as §1

M14 = assay: NCI screen, growth of human tumor cells: Melanoma M14; settings: M14 (Melanoma), 10^−4 molar
Description: as §1

HL-60 (TB) = assay: NCI screen, growth of human tumor cells: Leukemia HL-60 (TB); settings: HL-60 (TB) (Leukemia), 10^−4 molar
Description: as §1

SNB-19 = assay: NCI screen, growth of human tumor cells: CNS Cancer SNB-19
Description: as §1

SF-539 = assay: NCI screen, growth of human tumor cells: CNS Cancer SF-539; settings: SF-539 (CNS Cancer), 10^−4 molar
Description: as §1

786-0 = assay: NCI screen, growth of human tumor cells: Renal Cancer 786-0; settings: 786-0 (Renal Cancer), 10^−4 molar
Description: as §1

HOP-62 = assay: NCI screen, growth of human tumor cells: Non-Small Cell Lung HOP-62; settings: HOP-62, 10^−4 molar
Description: as §1

KD488 = assay: NCI screen, growth of human tumor cells: Lymphoma KD488
CAKI-1 = assay: NCI screen, growth of human tumor cells: Renal Cancer CAKI-1; settings: CAKI-1 (Renal Cancer), 10^−4 molar
Description: as §1

ACHN = assay: NCI screen, growth of human tumor cells: Renal Cancer ACHN; settings: ACHN (Renal Cancer), 10^−4 molar
Description: as §1

O=S1(=O)OCCOS(=O)(=O)[C-]1S(=O)(=O)c1cccc2ccccc12.[Na+] [NSC 679044]
percent of growth of human tumor cells (LOXIMVI): 23%
Percentage of cancers showing negative growth cancers tested (human cancer cells): 10^−4 M conc. = 1/4 = 25%
percent of growth of human tumor cells (HCT-116): −52%
percent of growth of human tumor cells (K562): 15%
percent of growth of human tumor cells (PC-3): 23%

CCOCC1(CC2=C(C)C(=O)c3ccccc3C2=O)S(=O)(=O)OCCOS1(=O)=O [NSC 698124]
percent of growth of human tumor cells (NCI-H460): 11%
percent of growth of human tumor cells (HCC-2998): 8%
percent of growth of human tumor cells (MCF 7): 19%
percent of growth of human tumor cells (BT-549): 27%
percent of growth of human tumor cells (SK-MEL-5): 9%
percent of growth of human tumor cells (UACC-257): 12%
percent of growth of human tumor cells (HS 578T): 27%
percent of growth of human tumor cells (SF-268): 20%
percent of growth of human tumor cells (SNB-75): 11%
percent of growth of human tumor cells (U-251): 20%
percent of growth of human tumor cells (LOXIMVI): −55%
Percentage of cancers showing negative growth cancers tested (human cancer cells): 10^−4 M conc. = 8/25 = 32%
percent of growth of human tumor cells (SN12C): −25%
percent of growth of human tumor cells (MALME-3M; MALME-3M (Melanoma)): −9%
percent of growth of human tumor cells (DU-145): 27%
percent of growth of human tumor cells (IGROVI): 6%
% Growth (MDA-MB-435; MDA-MB-435, 10^−4 molar): −74%
percent of growth of human tumor cells (MCF7/ADR-RES): 30%
percent of growth of human tumor cells (UACC-62): −32%
percent of growth of human tumor cells (NCI-H522): −45%
percent of growth of human tumor cells (OVCAR-4): 14%
percent of growth of human tumor cells (NCI-H23): 16%
percent of growth of human tumor cells (HOP-92): 27%
percent of growth of human tumor cells (OVCAR-3): −17%
percent of growth of human tumor cells (HCT-15): 15%
percent of growth of human tumor cells (COLO205): −25%

CC1(C)OCC(COC(=O)C(=O)C2(C3=C(Cl)C(=O)c4ccccc4C3=O)S(=O)(=O)OCCOS2(=O)=O)O1 (stereo not drawn) [NSC 737278]
% Growth (HCC-2998; HCC-2998, 10^−4 molar): −15%
% Growth (HCC-2998; HCC-2998, 10^−5 molar): 41%
% Growth (HCC-2998; HCC-2998, 10^−6 molar): 45%
% Growth (HCC-2998; HCC-2998, 10^−7 molar): 64%
percent of growth of human tumor cells (UO-31): 4%
percent of growth of human tumor cells (CCRF-CEM): 22%
% Growth (SR; 10^−4 molar): −37%
% Growth (SR; 10^−5 molar): 20%
% Growth (SR; 10^−6 molar): 33%
% Growth (SR; 10^−7 molar): 56%
Percentage of cancers showing negative growth cancers tested (human cancer cells): 10^−4 M conc. = 8/12 = 67%
% Growth (MOLT-4; MOLT-4, 10^−4 molar): −41%
% Growth (MOLT-4; MOLT-4, 10^−5 molar): 53%
percent of growth of human tumor cells (DU-145): 6%
percent of growth of human tumor cells (MDA-MB-435): −45%
percent of growth of human tumor cells (M14): −4%
percent of growth of human tumor cells (K562): 12%
percent of growth of human tumor cells (NCI-H522): −30%
percent of growth of human tumor cells (HL-60 (TB)): −25%
percent of growth of human tumor cells (COLO205): −9%

O=S(=O)([O-])OCCCC1S(=O)(=O)OCCOS1(=O)=O.[Na+] [NSC 674994, butane-1-[hydroxyhydrogensulfate]-4,4-[ethylenedisulfonate]]
Percentage of cancers showing negative growth cancers tested (human cancer cells): 10^−4 M conc. = 0/1 = 0%
% Growth (SNB-19; SNB-19, 10^−4 molar): 36%
% Growth (SNB-19; SNB-19, 10^−5 molar): 45%
% Growth (SNB-19; SNB-19, 10^−6 molar): 47%
% Growth (SNB-19; SNB-19, 10^−7 molar): 73%
% Growth (SNB-19; SNB-19, 10^−8 molar): 67%

CC1(C)OCC(COC(=O)C(=O)OC(C(=O)OCC2COC(C)(C)O2)=C2S(=O)(=O)OCCOS2(=O)=O)O1 (stereo not drawn) [NSC 737275]
percent of growth of human tumor cells (HCC-2998): −12%
percent of growth of human tumor cells (SF-268): 24%
percent of growth of human tumor cells (SR; SR (Leukemia), 10^−4 molar): 7%
Percentage of cancers showing negative growth cancers tested (human cancer cells): 10^−4 M conc. = 1/5 = 20%
percent of growth of human tumor cells (SF-539): 15%
percent of growth of human tumor cells (786-0): 17%

CC1=C(CC2(C(=O)C(=O)OCC3COC(C)(C)O3)S(=O)(=O)OCCOS2(=O)=O)C(=O)c2ccccc2C1=O (stereo not drawn) [NSC 737277]
percent of growth of human tumor cells (UO-31): 22%
percent of growth of human tumor cells (HS 578T): 24%
% Growth (SR; 10^−4 molar): −25%
% Growth (SR; 10^−5 molar): 50%
Percentage of cancers showing negative growth cancers tested (human cancer cells): 10^−4 M conc. = 6/9 = 67%
percent of growth of human tumor cells (MOLT-4): −12%
percent of growth of human tumor cells (MDA-MB-435): −11%
% Growth (HOP-62): −84%
percent of growth of human tumor cells (K562): 5%
percent of growth of human tumor cells (HL-60 (TB)): −33%
percent of growth of human tumor cells (COLO205): −8%

COC(=O)c1cc(/C=C/C(=O)Cc2ccccc2)cn1S(=O)(=O)c1ccccc1 [compound 679534]
% Growth (MALME-3M; MALME-3M): −88%

O=C(c1cccc2ccccc12)C1(Br)S(=O)(=O)OCCOS1(=O)=O [compound 679048]
% Growth (KD488; KD488, 10^−4 molar): 54%
% Growth (KD488; KD488, 10^−5 molar): 51%
% Growth (KD488; KD488, 10^−6 molar): 34%
% Growth (KD488; KD488, 10^−7 molar): 100%
% Growth (KD488; KD488, 10^−8 molar): 52%

CC1S(=O)(=O)OCCOS1(=O)=O [NSC 372239]
percent of growth of human tumor cells (NCI-H460): 2%
percent of growth of human tumor cells (CAKI-1): 20%
percent of growth of human tumor cells (ACHN): 20%
percent of growth of human tumor cells (SF-268): 29%
percent of growth of human tumor cells (SNB-75): 28%
percent of growth of human tumor cells (CCRF-CEM): −6%
percent of growth of human tumor cells (U-251): 16%
Percentage of cancers showing negative growth cancers tested (human cancer cells): 2/12 = 17%
percent of growth of human tumor cells (SNB-19; SNB-19 (CNS Cancer), 10^−4 molar): 26%
percent of growth of human tumor cells (MOLT-4): 12%
percent of growth of human tumor cells (SF-539): 28%
percent of growth of human tumor cells (UACC-62): −14%
percent of growth of human tumor cells (K562): 12%
